According to ChEMBL document CHEMBL1201862, “PubChem BioAssay data set” (2004):
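Results reflect a 48-hour exposure of cells in 96-well plates to compound at five concentrations. GI50 is the concentration that inhibits growth by half.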 Activity calls are given as the source filed them. No stated cut-off is given here; in the data, active = GI50 up to about 1.1 µM and inactive = higher.

What was measured:
Experiment in all cases: DTP human tumour cell line panel, 48 h
[1] = system: 786-0
[2] = system: A549
[3] = system: COLO 205
[4] = system: HCT-116
[5] = system: HL-60
[6] = system: HOP-62
[7] = system: K562
[8] = system: NCI-H226
[9] = system: NCI-H23
[10] = system: OVCAR-5
[11] = system: RPMI-8226
[12] = system: SF-268
[13] = system: SK-MEL-28
[14] = system: SK-MEL-2
[15] = system: SK-OV-3
[16] = system: SNB-19
[17] = system: SR
[18] = system: SW-620
[19] = system: UACC-62
[20] = system: MDA-N

SMILES	GI50 [1]	GI50 [2]	GI50 [3]	GI50 [4]	GI50 [5]	GI50 [6]	GI50 [7]	GI50 [8]	GI50 [9]	GI50 [10]	GI50 [11]	GI50 [12]	GI50 [13]	GI50 [14]	GI50 [15]	GI50 [16]	GI50 [17]	GI50 [18]	GI50 [19]	GI50 [20]
Cn1sc2ccccc2c1=S	3.85 µM (inactive)	13.9 µM (inactive)	13.3 µM (inactive)	3.21 µM (inactive)	5.47 µM (inactive)	16.5 µM (inactive)	3.71 µM (inactive)	23.2 µM (inactive)	11.7 µM (inactive)	20 µM (inactive)	6.73 µM (inactive)	3.5 µM (inactive)	8.11 µM (inactive)	20 µM (inactive)	36.1 µM (inactive)	12.2 µM (inactive)	14 µM (inactive)	2.28 µM (inactive)	5.78 µM (inactive)	
O=C1CC(c2cccc(Br)c2)n2cccc21 (stereo not given)	> 100 µM (inactive)	62.1 µM (inactive)	> 100 µM (inactive)	> 100 µM (inactive)	28.1 µM (inactive)	> 100 µM (inactive)	72.3 µM (inactive)	92.9 µM (inactive)	63.5 µM (inactive)	> 100 µM (inactive)	> 100 µM (inactive)	67.8 µM (inactive)	> 100 µM (inactive)	29 µM (inactive)	> 100 µM (inactive)	> 100 µM (inactive)	51.2 µM (inactive)	> 100 µM (inactive)	> 100 µM (inactive)	
COc1ccc(C(=O)c2c(C(C(=O)c3ccc(OC)cc3)C(=O)c3ccc(OC)cc3)n(C(=O)c3ccc(OC)cc3)c3ccccc23)cc1	> 100 µM (inactive)	> 100 µM (inactive)	> 100 µM (inactive)	> 100 µM (inactive)	> 100 µM (inactive)	> 100 µM (inactive)	> 100 µM (inactive)	> 100 µM (inactive)	> 100 µM (inactive)	> 100 µM (inactive)	> 100 µM (inactive)	> 100 µM (inactive)	> 100 µM (inactive)	> 100 µM (inactive)	> 100 µM (inactive)	> 100 µM (inactive)	> 100 µM (inactive)	> 100 µM (inactive)	> 100 µM (inactive)	
CC(C)=CCC/C(C)=C/Cc1c(O)ccc2c1[nH]c1cc(O)c(C)cc12	9.48 µM (inactive)	8.87 µM (inactive)	> 25 µM (inactive)	13.3 µM (inactive)	7.53 µM (inactive)	7.62 µM (inactive)	9.38 µM (inactive)	15.6 µM (inactive)		> 25 µM (inactive)	17.8 µM (inactive)	10.7 µM (inactive)	> 25 µM (inactive)	> 25 µM (inactive)	24.2 µM (inactive)	9.46 µM (inactive)	8.13 µM (inactive)	13.9 µM (inactive)	16.9 µM (inactive)	
Cc1cc(NS(=O)(=O)c2ccc(NC(=O)c3cccn4c(=O)c5ccccc5nc34)cc2)no1	> 100 µM (inactive)	> 100 µM (inactive)	> 100 µM (inactive)	> 100 µM (inactive)	> 100 µM (inactive)	> 100 µM (inactive)	> 100 µM (inactive)	> 100 µM (inactive)	> 100 µM (inactive)		> 100 µM (inactive)	> 100 µM (inactive)	> 100 µM (inactive)		> 100 µM (inactive)	> 100 µM (inactive)	> 100 µM (inactive)	> 100 µM (inactive)	> 100 µM (inactive)	
CCOC(=O)C(Br)(C(N)=O)C1(O)OC(c2ccccc2)=C(Br)C1=O (stereo not given)	23.3 µM (inactive)	26.2 µM (inactive)	17 µM (inactive)	18.2 µM (inactive)	38.5 µM (inactive)	32.1 µM (inactive)	22.4 µM (inactive)	19.2 µM (inactive)	23.7 µM (inactive)	21.1 µM (inactive)	12.4 µM (inactive)	22.2 µM (inactive)	80.9 µM (inactive)	42.3 µM (inactive)	66.1 µM (inactive)	> 100 µM (inactive)	18.2 µM (inactive)	20 µM (inactive)	27.8 µM (inactive)	
Cc1ccc(-n2cc([Si](C)(C)C)nn2)s1	> 100 µM (inactive)	> 100 µM (inactive)	61.8 µM (inactive)	> 100 µM (inactive)			45.1 µM (inactive)	> 100 µM (inactive)	68.4 µM (inactive)	> 100 µM (inactive)	22.9 µM (inactive)	> 100 µM (inactive)	> 100 µM (inactive)	> 100 µM (inactive)	> 100 µM (inactive)	> 100 µM (inactive)		> 100 µM (inactive)	> 100 µM (inactive)	> 100 µM (inactive)
O=c1[nH]c(=O)n(C2OC(CO)C(O)C2O)cc1/N=N/NCc1ccccc1 (stereo not given)	> 100 µM (inactive)	> 100 µM (inactive)	> 69.2 µM (inactive)	> 62.2 µM (inactive)	> 64.3 µM (inactive)	> 100 µM (inactive)	> 71.9 µM (inactive)	> 100 µM (inactive)	> 100 µM (inactive)	> 100 µM (inactive)	> 59.6 µM (inactive)	> 100 µM (inactive)	> 100 µM (inactive)	> 100 µM (inactive)	> 100 µM (inactive)	> 100 µM (inactive)	> 63.2 µM (inactive)	> 53.5 µM (inactive)	> 100 µM (inactive)	
CCOC(OCC)(OCC)C(Br)CC (stereo not given)	16.4 µM (inactive)	> 100 µM (inactive)	31.8 µM (inactive)	0.0281 µM (active)	> 100 µM (inactive)	> 100 µM (inactive)	> 100 µM (inactive)	> 100 µM (inactive)	> 100 µM (inactive)	> 100 µM (inactive)	18.8 µM (inactive)	36.7 µM (inactive)	> 100 µM (inactive)	> 100 µM (inactive)	> 100 µM (inactive)	> 100 µM (inactive)	21.6 µM (inactive)		> 100 µM (inactive)	
O=C1c2cc(I)ccc2N2CCN=C2N1Cc1ccccc1	96.6 µM (inactive)	> 100 µM (inactive)	> 100 µM (inactive)	> 100 µM (inactive)	0.551 µM (active)	> 100 µM (inactive)	> 100 µM (inactive)	> 100 µM (inactive)	> 100 µM (inactive)	> 100 µM (inactive)	92.7 µM (inactive)	> 100 µM (inactive)	> 100 µM (inactive)	> 100 µM (inactive)	47.4 µM (inactive)	63.8 µM (inactive)	84.5 µM (inactive)	> 100 µM (inactive)		
CCOc1ccc(OCC(=O)O)c2c1CCCC2=O	> 100 µM (inactive)	> 100 µM (inactive)	> 100 µM (inactive)		> 100 µM (inactive)	> 100 µM (inactive)	> 10 µM (inactive)	> 100 µM (inactive)	> 100 µM (inactive)	> 100 µM (inactive)	> 100 µM (inactive)	> 100 µM (inactive)	> 100 µM (inactive)	> 100 µM (inactive)	> 100 µM (inactive)	> 100 µM (inactive)	> 100 µM (inactive)	> 100 µM (inactive)	> 100 µM (inactive)	
Cc1nc(-c2ccccc2)cc2c1c(=O)oc1ccccc12	> 100 µM (inactive)	> 100 µM (inactive)	> 100 µM (inactive)	> 100 µM (inactive)	> 100 µM (inactive)	> 100 µM (inactive)	> 100 µM (inactive)	> 100 µM (inactive)	> 100 µM (inactive)	> 100 µM (inactive)	> 100 µM (inactive)	> 100 µM (inactive)	> 100 µM (inactive)	> 100 µM (inactive)	> 100 µM (inactive)	> 100 µM (inactive)	> 100 µM (inactive)	> 100 µM (inactive)	46.8 µM (inactive)	
CCN(CC)CCCC(C)Nc1c2cc(OC)cc(C)c2nc2c(C)c(Cl)ccc12 (stereo not given)	1.64 µM (inactive)	1.89 µM (inactive)	1.64 µM (inactive)	1.86 µM (inactive)	2.15 µM (inactive)	1.66 µM (inactive)	1.83 µM (inactive)	1.82 µM (inactive)	1.48 µM (inactive)	2.1 µM (inactive)	2.62 µM (inactive)	1.97 µM (inactive)	1.95 µM (inactive)	1.87 µM (inactive)	1.67 µM (inactive)	1.68 µM (inactive)	2.01 µM (inactive)	1.85 µM (inactive)	1.79 µM (inactive)	
O=C(O)c1ccccc1C(=O)Nn1cnnc1	> 100 µM (inactive)	> 100 µM (inactive)	> 100 µM (inactive)	> 100 µM (inactive)		> 100 µM (inactive)	> 100 µM (inactive)		> 100 µM (inactive)	> 100 µM (inactive)	> 100 µM (inactive)	> 100 µM (inactive)	> 100 µM (inactive)	> 100 µM (inactive)	> 100 µM (inactive)	> 100 µM (inactive)		> 100 µM (inactive)	> 100 µM (inactive)	> 100 µM (inactive)
COc1ccc2cc3n(c(=O)c2c1)CCc1c-3cc(OC)c(OC)c1OC	> 100 µM (inactive)	> 100 µM (inactive)	> 100 µM (inactive)	> 100 µM (inactive)	> 100 µM (inactive)	68.1 µM (inactive)	> 100 µM (inactive)	> 100 µM (inactive)	> 100 µM (inactive)	> 100 µM (inactive)	> 100 µM (inactive)	> 100 µM (inactive)	> 100 µM (inactive)	56 µM (inactive)	> 100 µM (inactive)	> 100 µM (inactive)	> 100 µM (inactive)	> 100 µM (inactive)	> 100 µM (inactive)	
